Data set [1] deals with transcription factor AP-1. Nature of the data set: AP-1 assay. It is filed as cell-based. As to conditions: HEK293T AP-1 β-lactamase reporter; 1 h pre-incubation, then TPA, 18 h.
The conditions of data set [2]: Floridian collections of Lyngbya confervoides; ref [6],[7]; cited from earlier work.

Entries after “also recorded” stand apart in the source; their conditions may differ.

For Grassypeptolide F [compound 1], the “inhibitory activity against AP-1 (in words)” value in data set [1] is on record as “moderately active; also recorded: moderate inhibitory activity”. The same measure, in the same setting: the entry for Grassypeptolide G [compound 2] is “moderately active; also recorded: moderate inhibitory activity”. For the substance grassypeptolide C [compound 5], the “cytotoxicity (in words)” value in data set [2] is reported as “cytotoxic”.

The values above are taken from article PMC3162996 (Journal of natural products, 2011).
